The target of one test is β3-Tryptase (Homo sapiens, UniProt P20231). As to the kind of experiment: Kiapp determination with tryptase (Example 3). The test is classed as biochemical. The method, then:
Tryptase (0.2 nM) was preincubated with McoTi-KVV (0-34 nM) at 37 degree C. for 60 min, and the reaction was initiated by the addition of substrate tos-Gly-Pro-Arg-AMC. The residual steady state velocities were measured over 10 min and are expressed in % of the activity measured in the absence of the inhibitor.
Tryptase (0.2 nM) was preincubated with MCoEeTI (0-1950 nM) at 37 degree C. for 60 min, and the reaction was initiated by the addition of substrate tos-Gly-Pro-Arg-AMC. The residual steady state velocities were measured over 10 min and are expressed in % of the activity measured in the absence of the inhibitor.

In a further test the target is T1, bovine trypsin (Bos taurus, UniProt P00760).
T1 construct: purchased Serva
T1 sequence (P00760 24-246): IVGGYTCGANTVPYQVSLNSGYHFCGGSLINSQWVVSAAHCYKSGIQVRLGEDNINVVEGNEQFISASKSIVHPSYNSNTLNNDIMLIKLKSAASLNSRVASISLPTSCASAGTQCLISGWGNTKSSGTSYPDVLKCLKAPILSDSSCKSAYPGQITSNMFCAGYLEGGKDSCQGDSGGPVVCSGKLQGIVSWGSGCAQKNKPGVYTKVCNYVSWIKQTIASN
In words: Trypsin inhibition with substrate Boc-Leu-Gly-Arg-pNA (Example 4). The test is classed as biochemical. The conditions noted are these: as barnase′ fusion proteins. As to the method:
The inhibitory activity of the protein variants was measured according to van Nostrand et al. (1990) and Sinha et al. (1991). The remaining activity of bovine trypsin (Serva) was determined after incubation with the respective inhibitor for 10 min at 37° C. by monitoring hydrolysis of the chromogenic substrate Boc-Leu-Gly-Arg-pNA (Bachem, solubilized in Me2SO) at 405 nm. Assays were performed in a final volume of 100 μl in 50 mM Tris-HCl, pH 7.5, 150 mM NaCl, 5 mM CaCl2 at 37° C. containing 5 nM of trypsin, […] and varying amounts of inhibitor (10^−10-10^−6 M). For calculation of Kiapp-values, vmax values were determined and the curve fitting tool of SigmaPlot (Jandel Scientific) was applied on the basis of the following formula, that describes the case of competitive tight binding inhibitors (Morrison, 1969):
[formula] vi=vmax value of inhibited reaction v0=vmax value of uninhibited reaction [Et]=total enzyme concentration (free and in complex) [It]=total inhibitor concentration (free and in complex) Kiapp=apparent dissociation constant of the enzyme-inhibitor complex. Results and Discussion Choice of Carrier Protein and Production Strategy

A further test deals with Chymotrypsin. In words: Protease selectivity, Kiapp. The settings on record: Porcine. The test is classed as biochemical.
Another test addresses pK1. In words: Protease selectivity, Kiapp. The test is classed as biochemical. The conditions noted are these: Human.
The target in a further test is Tryptase β-Ia (Homo sapiens, UniProt Q15661). In words: biochemical.
The next test deals with Tryptase β-II (Homo sapiens, UniProt P20231). In words: biochemical.
The target in the next test is Tryptase ST2 (Ovis aries, UniProt Q9XSM2). As to the kind of experiment: biochemical.
Test [1] has as its target Trypsin (Sus scrofa, UniProt P00761). As to the kind of experiment: biochemical.
Test [2] deals with Elastase (Pankreas proteases) (Sus scrofa, UniProt P00772). As to the kind of experiment: biochemical.
In the next test the target is Thrombin (Homo sapiens, UniProt P00734). As to the kind of experiment: biochemical.
In a further test the target is Faktor XA (Homo sapiens, UniProt P00742). In words: biochemical.
The target of another test is Plasmin (Homo sapiens, UniProt P00747). In words: biochemical.
The target in a further test is tPA (Homo sapiens, UniProt P00750). As to the kind of experiment: biochemical.
The target in a further test is Elastase (Neutrophiles) (Homo sapiens, UniProt P08246). As to the kind of experiment: biochemical.
A further test addresses Cathepsin G (Homo sapiens, UniProt P08311). In words: biochemical.
Another test has as its target hK3 (Homo sapiens, UniProt P07288). In words: biochemical.
In another test the target is tetrameric tryptase (Homo sapiens, UniProt P20231). The conditions noted are these: cited from earlier work.
The target in test [3] is T2, Trypsin (Bos taurus, UniProt P00760).
T2 sequence (P00760 24-246): T1 sequence (P00760 24-246)
In words: Kiapp determination with trypsin (Example 3). The test is classed as biochemical, bovine. From the text:
Therefore, bovine pancreatic trypsin was standardised by active-site titration using p-Nitrophenyl p′-guanidinobenzoate (Chase & Shaw, 1970).

Read-outs that look alike come from different tables or passages of the source. Bridge positions count the residues as written; N and C are the ends. Peptide text beside a SMILES is read from it. Bounds are passed on as bounds.

On β3-Tryptase, `CC[C@H](C)[C@@H]1NC(=O)[C@H](CCCCN)NC(=O)[C@@H]2CCCN2C(=O)[C@@H](NC(=O)[C@@H](NC(=O)[C@H](CO)NC(=O)CN)C(C)C)CSSC[C@@H]2NC(=O)CNC(=O)[C@H](C)NC(=O)[C@H](CC(C)C)NC(=O)[C@@H]3CSSC[C@@H](C(=O)NCC(=O)N[C@@H](CO)C(=O)O)NC(=O)[C@H](Cc4ccccc4)NC(=O)CNC(=O)[C@H](CC(N)=O)NC(=O)[C@@H]4CCCN4C(=O)CNC(=O)[C@H](CSSC[C@H](NC(=O)[C@H](CCCCN)NC(=O)[C@H](CCCCN)NC(=O)[C@H](CC(C)C)NC1=O)C(=O)N[C@@H](CCCNC(=N)N)C(=O)N[C@@H](CCCNC(=N)N)C(=O)N[C@@H](CC(=O)O)C(=O)N[C@@H](CO)C(=O)N[C@@H](CC(=O)O)C(=O)N3)NC(=O)[C@H](C(C)C)NC2=O` [MCoEeTI] (H-GSVCPKILKKCRRDSDCLAGCVCGPNGFCGS-OH; disulfide 4-21, 11-23, 17-29; N-terminus and C-terminus assumed) registered a Ki of 200 nM. Moreover, the “inhibition of bovine trypsin (in words)” value against bovine trypsin is “strong inhibitory activity”.
Consider `CC[C@H](C)[C@@H]1NC(=O)[C@H](CCCCN)NC(=O)[C@@H]2CCCN2C(=O)[C@@H](NC(=O)[C@@H](NC(=O)CN)C(C)C)CSSC[C@@H]2NC(=O)CNC(=O)[C@H](C)NC(=O)[C@H](CC(C)C)NC(=O)[C@@H]3CSSC[C@@H](C(=O)NCC(=O)N[C@@H](CO)C(=O)O)NC(=O)[C@H](Cc4ccccc4)NC(=O)CNC(=O)[C@H](CC(N)=O)NC(=O)[C@@H]4CCCN4C(=O)CNC(=O)[C@H](CSSC[C@H](NC(=O)[C@H](CCCCN)NC(=O)[C@H](CCCCN)NC(=O)[C@H](CC(C)C)NC1=O)C(=O)N[C@@H](CCCNC(=N)N)C(=O)N[C@@H](CCCNC(=N)N)C(=O)N[C@@H](CC(=O)O)C(=O)N[C@@H](CO)C(=O)N[C@@H](CC(=O)O)C(=O)N3)NC(=O)[C@H](C(C)C)NC2=O` [SE-MG-0] (H-GVCPKILKKCRRDSDCLAGCVCGPNGFCGS-OH; disulfide 3-20, 10-22, 16-28; N-terminus and C-terminus assumed), for which the Ki at β3-Tryptase was 100 nM; at Chymotrypsin, above 1000 nM; at pK1, above 1000 nM; at Tryptase β-Ia, 70 nM; on Tryptase β-II it was 70 nM; on Tryptase ST2 it was 4000 nM. The Ki on Trypsin [1] was 0.3 nM; in [2] it was above 1000 nM; at Thrombin, above 1000 nM; at Faktor XA it was above 1000 nM; on Plasmin, around 600 nM; at tPA, above 1000 nM. In addition, the Ki at Elastase (Neutrophiles), at Cathepsin G and on hK3 was above 1000 nM each time.
Consider EETI-II [reference compound], for which, at bovine trypsin, the “inhibition of bovine trypsin (in words)” value is on record as “strong inhibitory activity”.
“LDTI: leech derived tryptase Inhibitor, a 46 residue Kazal-type protein (KKVCACPKILKPVCGSDGRTYANSCIARCNGVSIKSEGSCPTGILN; UniProt P80424 1-46, looked up)”: the Ki in the test with tetrameric tryptase (2 of the 4 catalytic sites of the tetrameric tryptase) was 1.4 nM; with tetrameric tryptase (one of the remaining two sites), 560 nM; with tetrameric tryptase (the other of the remaining two sites) it was 10000 nM.
“MCoEeTI-3R-3: Barnase′-[…] (SEQ ID NO:4) (SSSMGVCPRILRRCRRDSDCLAGCVCGPNGFCGS; not fully specified)”: the figures for the Ki with Trypsin [3] and in the test with β3-Tryptase (read-out: Kiapp β3-Tryptase) were 0.2 nM and 30 nM, respectively.
Take “MCoEeTI-ARD-2: Barnase′-[…] (SEQ ID NO:39) (SSSMGVCPKILKACARDSDCLAGCVCGPNGFCGS; not fully specified)”: the Ki in the test with Trypsin [3] worked out at 0.2 nM.
Take “MCoEeTI-KKV-1: Ba′-[…] (SEQ ID NO:5) (SSSMGKKVGVCPKILKKCRRDSDCLAGCVCGPNGFCGS; not fully specified)”: the figures for the Ki with Trypsin [3] and in the test with β3-Tryptase (read-out: Kiapp β3-Tryptase) were 0.2 nM and 20 nM, respectively.
With “MCoEeTI-LKA-7: Bar′-[…] (SEQ ID NO:40) (SSSMGVCPKILKACRRDSDCLAGCVCGPNGFCGS; not fully specified)”, the Ki with Trypsin [3] was 0.2 nM.
On the same count and under the same terms, with “MCoEeTI-QRT-7: Barnase′-[…] (SEQ ID NO:38) (SSSMGVCPRNRQRCRRDSDCLAGCVCTNNKFCGS; not fully specified)” the figure was 1 nM.
As to “MCoEeTI-T-1: Barnase′-[…] (SEQ ID NO:6) (SSSMGVCPKILKKCRRDSDCLAGCVCTNNKFCGS; not fully specified)”, the Ki with Trypsin [3] was 0.1 nM; with β3-Tryptase (read-out: Kiapp β3-Tryptase), 150 nM.
“SE-BMG-0: Barnase′-[…] (SEQ ID NO:3) (SSSMGVCPKILKKCRRDSDCLAGCVCGPNGFCGS; not fully specified)”: the figures for the Ki with Trypsin [3] and with β3-Tryptase (read-out: Kiapp β3-Tryptase) were 0.2 nM and 100 nM, respectively.

Source of the values: US8278262B2, “Use of microproteins as tryptase inhibitors” (BioNTech AG, priority 2004, dated 2012).
